In paper PMC8820799, “Angiogenesis and anti-leukaemia activity of novel indole derivatives as potent colchicine binding site inhibitors” (Journal of Enzyme Inhibition and Medicinal Chemistry, 2022):

Tests used:
[1] = biological target: T1, Tubulin isolated from porcine brain tissue (Sus scrofa, UniProt P02550+P02554); assay: Tubulin polymerisation assay; type: biochemical; details: triplicate, mean ± SD; read-out: Tubulin (tubulin inhibitory polymerisation IC50)
T1 construct: purchased Cytoskeleton (Denver, CO), via Beyotime, China; host or cells: porcine brain tissue
Experimental: Tubulin polymerisation was determined with the tubulin polymerisation assay kit (Cytoskeleton, Denver, CO which was purchased from Cytoskeleton, Beyotime, China. Tubulin isolated from porcine brain tissue was used in this commercial kit.) It is based on the principal that light is scattered by microtubules to an extent that is proportional to the concentration of the microtubule polymer. Compounds that interact with tubulin will alter the polymerisation of tubulin, and this can be detected using a spectrophotometer. Tubulin polymerisation dynamics was monitored through measuring the change of absorbance at 340 nm every 2 min for 30 min at 37 °C on a spectrophotometer.

T1 sequence (P02554 whole entry): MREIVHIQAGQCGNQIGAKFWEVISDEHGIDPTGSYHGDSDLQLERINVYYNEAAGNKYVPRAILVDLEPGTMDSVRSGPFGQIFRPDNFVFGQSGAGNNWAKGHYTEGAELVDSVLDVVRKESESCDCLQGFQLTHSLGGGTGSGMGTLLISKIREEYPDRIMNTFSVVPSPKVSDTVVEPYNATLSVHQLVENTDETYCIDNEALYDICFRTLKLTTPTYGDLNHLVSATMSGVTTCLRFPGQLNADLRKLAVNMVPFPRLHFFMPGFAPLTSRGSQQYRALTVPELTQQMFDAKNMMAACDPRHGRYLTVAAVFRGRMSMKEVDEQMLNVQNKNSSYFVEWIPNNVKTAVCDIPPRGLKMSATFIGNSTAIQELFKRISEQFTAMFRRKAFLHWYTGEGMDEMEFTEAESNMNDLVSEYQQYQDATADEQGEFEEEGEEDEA
T1 sequence (P02550 whole entry): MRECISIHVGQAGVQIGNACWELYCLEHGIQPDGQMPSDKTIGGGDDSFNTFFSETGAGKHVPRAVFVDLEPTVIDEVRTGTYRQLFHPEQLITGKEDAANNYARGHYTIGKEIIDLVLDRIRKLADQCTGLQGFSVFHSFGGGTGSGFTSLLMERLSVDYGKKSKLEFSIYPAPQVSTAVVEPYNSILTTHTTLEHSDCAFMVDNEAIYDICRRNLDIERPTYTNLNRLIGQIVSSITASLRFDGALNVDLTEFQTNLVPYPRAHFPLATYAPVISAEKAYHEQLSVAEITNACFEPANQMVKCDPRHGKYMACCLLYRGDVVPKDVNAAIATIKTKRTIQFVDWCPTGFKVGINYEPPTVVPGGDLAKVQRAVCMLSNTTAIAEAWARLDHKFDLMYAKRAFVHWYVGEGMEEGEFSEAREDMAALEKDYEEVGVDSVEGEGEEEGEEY

melting point [°C] | IC50 [1] [µM] | SMILES
160 to 162 | > 100 | CCCn1cc(/C=C/C(=O)c2ccc(Cl)cc2)c2ccccc21 [Compound 25c, (E)-1–(4-chlorophenyl)-3–(1-propyl-1H-indol-3-yl)prop-2-en-1-one]
165 to 168 | > 100 | O=C(/C=C/c1cn(S(=O)(=O)c2ccccc2)c2ccccc12)c1ccccc1 [Compound 23e, (E)-1-Phenyl-3–(1-(phenylsulfonyl)-1H-indol-3-yl)prop-2-en-1-one]
161 to 163 | 75.8 ± 2.6 | COc1ccc(C(=O)/C=C/c2cn(Cc3ccccc3)c3ccccc23)cc1 [Compound 26d, (E)-3–(1-Benzyl-1H-indol-3-yl)-1–(4-methoxyphenyl)prop-2-en-1-one]
160 to 163 | > 100 | O=C(/C=C/c1cn(Cc2ccccc2)c2ccccc12)c1ccc(C(F)(F)F)cc1 [Compound 28d, (E)-3–(1-Benzyl-1H-indol-3-yl)-1–(4-(trifluoromethyl)phenyl)prop-2-en-1-one]
160 to 162 | 85.7 ± 2.5 | COc1ccc(C(=O)/C=C/c2cn(C)c3ccccc23)cc1 [Compound 26a, (E)-1–(4-Methoxyphenyl)-3–(1-methyl-1H-indol-3-yl)prop-2-en-1-one]
165 to 168 | > 100 | CCn1cc(/C=C/C(=O)c2ccc(C(F)(F)F)cc2)c2ccccc21 [Compound 28b, (E)-3–(1-ethyl-1H-indol-3-yl)-1–(4-(trifluoromethyl)phenyl)prop-2-en-1-one]
162 to 165 | > 100 | O=C(/C=C/c1cn(S(=O)(=O)c2ccccc2)c2ccccc12)c1ccc(Cl)cc1 [Compound 25e, (E)-1–(4-chlorophenyl)-3–(1-(phenylsulfonyl)-1H-indol-3-yl)prop-2-en-1-one]
173 to 175 | > 100 | Cn1cc(/C=C/C(=O)c2cccc(Cl)c2)c2ccccc21 [Compound 24a, (E)-1–(3-Chlorophenyl)-3–(1-methyl-1H-indol-3-yl)prop-2-en-1-one]
165 to 168 | 92.3 ± 2.4 | O=C(/C=C/c1cn(S(=O)(=O)c2ccccc2)c2ccccc12)c1cccc(Cl)c1 [Compound 24e, (E)-1–(3-Chlorophenyl)-3–(1-(phenylsulfonyl)-1H-indol-3-yl)prop-2-en-1-one]
163 to 165 | > 100 | O=C(/C=C/c1cn(Cc2ccccc2)c2ccccc12)c1ccc(Cl)cc1 [Compound 25d, (E)-3–(1-benzyl-1H-indol-3-yl)-1–(4-chlorophenyl)prop-2-en-1-one]
161 to 162 | > 100 | COc1cccc(C(=O)/C=C/c2cn(C)c3ccccc23)c1 [Compound 27a, (E)-1–(3-Methoxyphenyl)-3–(1-methyl-1H-indol-3-yl)prop-2-en-1-one]
165 to 168 | > 100 | CCn1cc(/C=C/C(=O)c2cccc(Cl)c2)c2ccccc21 [Compound 24b, (E)-1–(3-Chlorophenyl)-3–(1-ethyl-1H-indol-3-yl)prop-2-en-1-one]
165 to 166 | > 100 | CCn1cc(/C=C/C(=O)c2cccc(OC)c2)c2ccccc21 [Compound 27b, (E)-3–(1-Ethyl-1H-indol-3-yl)-1–(3-methoxyphenyl)prop-2-en-1-one]
160 to 162 | > 100 | Cn1cc(/C=C/C(=O)c2ccc(C(F)(F)F)cc2)c2ccccc21 [Compound 28a, (E)-3–(1-Methyl-1H-indol-3-yl)-1–(4-(trifluoromethyl)phenyl)prop-2-en-1-one]
161 to 163 | 68.6 ± 3.2 | O=C(/C=C/c1cn(Cc2ccccc2)c2ccccc12)c1ccccc1 [Compound 23d, (E)-3–(1-Benzyl-1H-indol-3-yl)-1-phenylprop-2-en-1-one]
161 to 162 | > 100 | CCCn1cc(/C=C/C(=O)c2ccccc2)c2ccccc21 [Compound 23c, (E)-1-Phenyl-3–(1-propyl-1H-indol-3-yl)prop-2-en-1-one]
161 to 162 | 72.5 ± 1.7 | CCCn1cc(/C=C/C(=O)c2ccc(OC)cc2)c2ccccc21 [Compound 26c, (E)-1–(4-Methoxyphenyl)-3–(1-propyl-1H-indol-3-yl)prop-2-en-1-one]
165 to 168 | > 100 | CCn1cc(/C=C/C(=O)c2ccc(Cl)cc2)c2ccccc21 [Compound 25b, (E)-1–(4-chlorophenyl)-3–(1-ethyl-1H-indol-3-yl)prop-2-en-1-one]
161 to 163 | > 100 | O=C(/C=C/c1cn(Cc2ccccc2)c2ccccc12)c1cccc(Cl)c1 [Compound 24d, (E)-3–(1-Benzyl-1H-indol-3-yl)-1–(3-chlorophenyl)prop-2-en-1-one]
161 to 162 | 26.8 ± 4.6 | CCCn1cc(/C=C/C(=O)c2ccc(C(F)(F)F)cc2)c2ccccc21 [Compound 28c, (E)-3–(1-Propyl-1H-indol-3-yl)-1–(4-(trifluoromethyl)phenyl)prop-2-en-1-one]
165 to 168 | 78.8 ± 1.3 | CCn1cc(/C=C/C(=O)c2ccc(OC)cc2)c2ccccc21 [Compound 26b, (E)-3–(1-Ethyl-1H-indol-3-yl)-1–(4-methoxyphenyl)prop-2-en-1-one]
171 to 173 | > 100 | Cn1cc(/C=C/C(=O)c2ccc(Cl)cc2)c2ccccc21 [Compound 25a, (E)-1–(4-chlorophenyl)-3–(1-methyl-1H-indol-3-yl)prop-2-en-1-one]
165 to 168 | > 100 | CCn1cc(/C=C/C(=O)c2ccccc2)c2ccccc21 [Compound 23b, (E)-3–(1-Ethyl-1H-indol-3-yl)-1-phenylprop-2-en-1-one]
155 to 158 | > 100 | CCn1cc(/C=C/C(=O)c2cc(OC)c(OC)c(OC)c2)c2ccccc21 [Compound 29b, (E)-3–(1-Ethyl-1H-indol-3-yl)-1–(3,4,5-trimethoxyphenyl)prop-2-en-1-one]
162 to 164 | > 100 | CCCn1cc(/C=C/C(=O)c2cc(OC)c(OC)c(OC)c2)c2ccccc21 [Compound 29c, (E)-3–(1-Propyl-1H-indol-3-yl)-1–(3,4,5-trimethoxyphenyl)prop-2-en-1-one]
161 to 162 | > 100 | CCCn1cc(/C=C/C(=O)c2cccc(Cl)c2)c2ccccc21 [Compound 24c, (E)-1–(3-Chlorophenyl)-3–(1-propyl-1H-indol-3-yl)prop-2-en-1-one]
 | > 100 | Cn1cc(/C=C/C(=O)c2ccccc2)c2ccccc21 [Compound 23a, (E)-3–(1-Methyl-1H-indol-3-yl)-1-phenylprop-2-en-1-one]
167 to 168 | 87.2 ± 1.4 | COc1cccc(C(=O)/C=C/c2cn(S(=O)(=O)c3ccccc3)c3ccccc23)c1 [Compound 27e, (E)-1–(3-Methoxyphenyl)-3–(1-(phenylsulfonyl)-1H-indol-3-yl)prop-2-en-1-one]
161 to 163 | > 100 | COc1cccc(C(=O)/C=C/c2cn(Cc3ccccc3)c3ccccc23)c1 [Compound 27d, (E)-3–(1-Benzyl-1H-indol-3-yl)-1–(3-methoxyphenyl)prop-2-en-1-one]
